From patent US20260028336A1 (Arcus Biosciences, Inc., priority 2022, published 2026)

Legend:
Cbl-b = molecular target: T1, Cbl-b (Homo sapiens, UniProt Q13191); test: Cbl-b probe displacement HTRF binding assay; settings: 0.4 nM biotinylated Cbl-b, 150 nM BODIPY probe
T1 construct: biotin (biotinylated)
Outline: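 Biotinylated Cbl-b was preincubated with compound for 60 min at room temperature in HEPES/NaCl/Triton/TCEP/BSA buffer. BODIPY probe was added for 15 min, followed by streptavidin-terbium, and the HTRF signal was read. Displacement was normalised to DMSO and no-protein controls, and affinity was obtained from a four-parameter dose-response fit.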

Jurkat cells = test: IL-2 secretion assay in CD3/CD28-activated Jurkat cells (AlphaLISA); assay type: cell-based; settings: Homo sapiens, CD3/CD28 T Cell Activator, 24 h, IL-2 AlphaLISA
Outline: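 Jurkat cells (50,000/well) were preincubated 1 h at 37° C with compound in a 16-point 1:2 series spanning 10 μM to 300 pM final. Cells were then activated with CD3/CD28 T cell activator, and secreted IL-2 was read by AlphaLISA. EC50 came from 4-parameter logistic fits.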

T1 sequence (Q13191 whole entry, species assumed): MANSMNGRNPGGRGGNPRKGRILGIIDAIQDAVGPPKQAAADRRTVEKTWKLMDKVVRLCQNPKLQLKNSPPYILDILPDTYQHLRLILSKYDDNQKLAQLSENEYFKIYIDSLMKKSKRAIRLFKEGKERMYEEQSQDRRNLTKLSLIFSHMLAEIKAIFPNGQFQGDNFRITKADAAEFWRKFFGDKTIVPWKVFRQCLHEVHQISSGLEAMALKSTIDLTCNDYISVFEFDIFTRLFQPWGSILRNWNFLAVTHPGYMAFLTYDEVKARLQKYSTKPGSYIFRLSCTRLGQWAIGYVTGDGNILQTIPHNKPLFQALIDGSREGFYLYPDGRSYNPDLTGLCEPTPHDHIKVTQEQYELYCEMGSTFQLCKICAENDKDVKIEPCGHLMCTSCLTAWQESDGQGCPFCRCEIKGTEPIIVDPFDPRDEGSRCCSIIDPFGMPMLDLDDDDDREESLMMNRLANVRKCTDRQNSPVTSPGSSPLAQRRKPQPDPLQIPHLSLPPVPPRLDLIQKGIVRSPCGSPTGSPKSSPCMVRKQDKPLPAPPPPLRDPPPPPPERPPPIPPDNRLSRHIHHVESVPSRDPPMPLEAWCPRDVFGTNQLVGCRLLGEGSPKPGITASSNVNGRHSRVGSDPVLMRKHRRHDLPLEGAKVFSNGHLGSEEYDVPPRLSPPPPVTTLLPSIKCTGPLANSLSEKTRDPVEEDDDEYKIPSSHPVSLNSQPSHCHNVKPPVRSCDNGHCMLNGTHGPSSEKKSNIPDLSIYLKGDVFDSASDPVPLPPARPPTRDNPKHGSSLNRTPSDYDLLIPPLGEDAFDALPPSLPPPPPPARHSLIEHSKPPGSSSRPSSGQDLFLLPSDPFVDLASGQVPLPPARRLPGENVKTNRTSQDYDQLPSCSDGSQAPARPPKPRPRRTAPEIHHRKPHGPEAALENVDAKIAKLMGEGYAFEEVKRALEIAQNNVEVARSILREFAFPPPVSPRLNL

Compound | IC50 (Cbl-b) [nM] | EC50 (Jurkat cells) [nM]
C[C@H]1CCCN(Cc2cc3c(C4CC4)cn(-c4cccc(C5(c6nncn6CC(F)(F)F)CC6(CC6)C5)c4)c(=O)c3[nH]2)C1 [Example 147, 4-Cyclopropyl-2-[[(3S)-3-methylpiperidin-1-yl]methyl]-6-[3-[5-[4-(2,2,2-trifluoroethyl)-1,2,4-triazol-3-yl]spiro[2.3]hexan-5-yl]phenyl]-1H-pyrrolo[2,3-c]pyridin-7-one] | < 100 | 1000 to 5000
CC1CC(c2cccc(-n3cc(C4CC4)c4c(C#N)c(CN5CCC[C@H](C)C5)[nH]c4c3=O)c2)(c2nncn2C)C1 (mixture of isomers) [Example 134, 4-Cyclopropyl-2-{[(3S)-3-methylpiperidin-1-yl]methyl}-7-oxo-6-{3-[(1R,3S)-3-methyl-1-(4-methyl-4H-1,2,4-triazol-3-yl)cyclobutyl]phenyl}-1H,6H,7H-pyrrolo[2,3-c]pyridine-3-carbonitrile] | < 100 | < 100
C[C@H]1CCCN(Cc2cc3c(C4CC4)cn(-c4cccc([C@H](c5nncn5C(F)F)C5CCC5)c4)c(=O)c3[nH]2)C1 [Example 154, 6-(m-{(R)-cyclobutyl[4-(difluoromethyl)-4H-1,2,4-triazol-3-yl]methyl}phenyl)-2-{[(S)-3-methyl-1-piperidyl]methyl}-4-cyclopropyl-1,6-dihydro-1,6-diaza-7-indenone] | < 100 | 100 to 1000
CC1CC(c2cccc(-n3cc(C4CC4)c4cc(CO)[nH]c4c3=O)c2)(c2nncn2C)C1 (stereo not drawn) [Example 8, 4-cyclopropyl-2-(hydroxymethyl)-6-[3-[3-methyl-1-(4-methyl-1,2,4-triazol-3-yl)cyclobutyl]phenyl]-1H-pyrrolo[2,3-c]pyridin-7-one] | 1000 to 5000 | 1000 to 5000
CC1CC(c2cccc(-n3cnc4cc(CN5CCC[C@H](C)C5)[nH]c4c3=O)c2)(c2nncn2C)C1 (mixture of isomers) [Example 119, 6—{[(3S)-3-Methylpiperidin-1-yl]methyl}-3-{3-[(1R,3S)-3-methyl-1-(4-methyl-4H-1,2,4-triazol-3-yl)cyclobutyl]phenyl}-3H,4H,5H-pyrrolo[3,2-d]pyrimidin-4-one] | < 100 | < 100
C[C@H]1CCCN(Cc2cc3c(C4CC4)cn(-c4cccc([C@]5(c6nncn6C)C[C@@H](F)C5)c4)c(=O)c3[nH]2)C1 [Example 129, cis-4-cyclopropyl-6-[3-[3-fluoro-1-(4-methyl-1,2,4-triazol-3-yl)cyclobutyl]phenyl]-2-[[(3S)-3-methylpiperidin-1-yl]methyl]-1H-pyrrolo[2,3-c]pyridin-7-one] | < 100 | < 100
C[C@H]1CCCN(Cc2cc3c(C4CC4)cn(-c4cccc(C(C)(F)c5nncn5C)c4)c(=O)c3[nH]2)C1 (stereo partly drawn) [Example 163, 4-cyclopropyl-6-[3-[1-fluoro-1-(4-methyl-1,2,4-triazol-3-yl)ethyl]phenyl]-2-[[(3S)-3-methylpiperidin-1-yl]methyl]-1H-pyrrolo[2,3-c]pyridin-7-one] | < 100 | < 100
Cn1cnnc1C1(c2cccc(-n3cc(C(F)(F)F)c4nc(CN5CCC(F)(F)C5)[nH]c4c3=O)c2)CC(F)(F)C1 [Example 115, 5-[3-[3,3-difluoro-1-(4-methyl-1,2,4-triazol-3-yl)cyclobutyl]phenyl]-2-[(3,3-difluoropyrrolidin-1-yl)methyl]-7-(trifluoromethyl)-3H-imidazo[4,5-c]pyridin-4-one] | 1000 to 5000 | > 5000
Cn1cnnc1C1(c2cccc(-n3cc(C4CC4)c4cc(CNCC5(CO)CC5)[nH]c4c3=O)c2)CC(F)(F)C1 [Example 85, 4-cyclopropyl-6-{3-[3,3-difluoro-1-(4-methyl-4H-1,2,4-triazol-3-yl)cyclobutyl]phenyl}-2-[({[1-(hydroxymethyl)cyclopropyl]methyl}amino)methyl]-1H,6H,7H-pyrrolo[2,3-c]pyridin-7-one] | < 100 | 100 to 1000
C[C@H]1CCCN(Cc2cc3c(C4CC4)cn(-c4cccc(C5(Cn6cccn6)CC(F)(F)C5)c4)c(=O)c3[nH]2)C1 [Example 124] | 100 to 1000 | 100 to 1000
Cn1cnnc1[C@]1(c2cccc(-n3cc(C(F)(F)F)c4cc[nH]c4c3=O)c2)C[C@H](C)C1 (single isomer, unassigned) [Example 36] | < 100 | 100 to 1000
C[C@H]1CCCN(Cc2cc3c(C4CC4)cn(-c4cccc(C5(c6nncn6C(F)F)CC6(CC6)C5)c4)c(=O)c3[nH]2)C1 [Example 150, 4-cyclopropyl-6-[3-[5-[4-(difluoromethyl)-1,2,4-triazol-3-yl]spiro[2.3]hexan-5-yl]phenyl]-2-[[(3S)-3-methylpiperidin-1-yl]methyl]-1H-pyrrolo[2,3-c]pyridin-7-one] | < 100 | < 100
Cn1cnnc1C1(c2cccc(-n3cc(C4CC4)c4cc[nH]c4c3=O)c2)CCC1 [Example 9, 4-cyclopropyl-6-[3-[1-(4-methyl-1,2,4-triazol-3-yl)cyclobutyl]phenyl]-1H-pyrrolo[2,3-c]pyridin-7-one] | 100 to 1000 | 1000 to 5000
C[C@H]1CCCN(Cc2cc3c(C4CC4)cn(-c4cccc([C@]5(c6nccn6C)C[C@H](F)C5)c4)c(=O)c3[nH]2)C1 [Example 126, 4-cyclopropyl-6-(3-((1r,3S)-3-fluoro-1-(1-methyl-1H-imidazol-2-yl)cyclobutyl)phenyl)-2-(((S)-3-methylpiperidin-1-yl)methyl)-1,6-dihydro-7H-pyrrolo[2,3-c]pyridin-7-one] | < 100 | < 100
CC1CC(c2cccc(-n3cc(C4CC4)c4cc(CNC5(C)CCC5)[nH]c4c3=O)c2)(c2nncn2C)C1 (stereo not drawn) [Example 39, 4-cyclopropyl-6-{3-[3-methyl-1-(4-methyl-4H-1,2,4-triazol-3-yl)cyclobutyl]phenyl}-2-{[(1-methylcyclobutyl)amino]methyl}-1H,6H,7H-pyrrolo[2,3-c]pyridin-7-one] | < 100 | < 100
CC1CC(c2cccc(-n3cc(C4CC4)c4c(-c5cnn(C)c5)c[nH]c4c3=O)c2)(c2nncn2C)C1 (mixture of isomers) [Example 131, 4-Cyclopropyl-3-(1-methyl-1H-pyrazol-4-yl)-6-{3-[(1R,3S)-3-methyl-1-(4-methyl-4H-1,2,4-triazol-3-yl)cyclobutyl]phenyl}-1H,6H,7H-pyrrolo[2,3-c]pyridin-7-one] | < 100 | > 5000
C[C@@H]1CN(Cc2nc3c(C4CC4)cn(-c4cccc([C@]5(c6nncn6C)C[C@H](C)C5)c4)c(=O)c3[nH]2)CCO1 [Example 110, 7-cyclopropyl-5-[3-[3-methyl-1-(4-methyl-1,2,4-triazol-3-yl)cyclobutyl]phenyl]-2-[[(2R)-2-methylmorpholin-4-yl]methyl]-3H-imidazo[4,5-c]pyridin-4-one] | < 100 | 100 to 1000
C[C@H]1CCCN(Cc2nc3c(C4CC4)cn(-c4cccc(C5(c6nncn6C)CC(F)(F)C5)c4)c(=O)c3[nH]2)C1 [Example 112, 7-cyclopropyl-5-[3-[3,3-difluoro-1-(4-methyl-1,2,4-triazol-3-yl)cyclobutyl]phenyl]-2-[[(3S)-3-methylpiperidin-1-yl]methyl]-3H-imidazo[4,5-c]pyridin-4-one] | < 100 | < 100
